Data published in patent US20240400584A1, “COMPOUNDS AND METHODS FOR MODULATING SPLICING” (REMIX THERAPEUTICS INC., priority 2021, published 2024).

How the values were obtained:
HTT [1] = assay: RT-qPCR splicing assay, HTT AJ/CJ mRNA; assay type: cell-based, human; settings: A673 or K562 cells; for IC50: decrease in canonical junction mRNA; for AC50: increase in alternative junction mRNA
Protocol: (§1) Compounds described herein were used to modulate RNA transcript abundance in cells. The expression of a target mRNA was measured by detecting the formation of an exon-exon junction in the canonical transcript (CJ). A compound mediated exon-inclusion event was detected by observing an increase in formation OF A new junction with an alternative exon (AJ). Real-time qPCR assays were used to detect these splicing switches and interrogate the potency of various compounds towards different target Genes. A high-throughput real time quantitative PCR (RT-qPCR) assay was developed to measure these two isoforms of the mRNA (CJ and AJ) for exemplary genes, such as HTT, SMN2, and MYB, together with a control housekeeping gene, GAPDH or GUSB or PPIA, used for normalization. Briefly, the A673 or K562 cell line was treated with various compounds described herein (e.g., compounds of Formula (i)). After treatment, the levels of the HTT, MYB, or SMN2 mRNA targets were determined from each sample of cell lysate by cDNA synthesis followed by qPCR.
(§2) The A673 cell line was cultured in DMEM with 10% FBS. Cells were diluted with full growth media and plated in a 96-well plate (15,000 cells in 100 ul media per well). The plate was incubated at 37° C. with 5% CO2 for 24 hours to allow cells to adhere. An 11-point 3-fold serial dilution of the compounds was made in DMSO then diluted in media in an intermediate plate. Compounds were transferred from the intermediate plate to the cell plate with the top dose at a final concentration of 10 uM in the well. Final DMSO concentration was kept at or below 0.25%. The cell plate was returned to the incubator at 37° C. with 5% CO2 for an additional 24 hours.
(§3) The K562 cell line was cultured in IMDM with 10% FBS. For K562, cells were diluted with full growth media and plated in either a 96-well plate (50,000 cells in 50 uL media per well) or a 384-well plate (8,000-40,000 cells in 45 uL media per well). An 11-point 3-fold serial dilution of the compounds were made in DMSO then diluted in media in an intermediate plate. Compound was transferred from the intermediate plate to the cell plate with the top dose at a final concentration of 10 uM in the well. Final DMSO concentration was kept at or below 0.25%. Final volume was 100 uL for 96-well plate and 50 uL for 384-well plate. The cell plate was then placed in an incubator at 37° C. with 5% CO2 for 24 hours.
(§4) The cells were then gently washed with 50 uL-100 uL Cold Pbs before proceeding to addition of lysis buffer. 30 uL-50 μL of room temperature lysis buffer with DNAse I (and optionally RNAsin) was added to each well. Cells were shaken/mixed thoroughly at room temperature for 5-10 minutes for lysis to take place and then 3 uL-5 μL of room temperature stop solution was added and wells were shaken/mixed again. After 2-5 minutes, the cell lysate plate was transferred to ice for RT-qPCR reaction setup. The lysates could also be frozen at −80° C. for later use.
(§5) In some cases, a direct lysis buffer was used. an appropriate volume of 3× lysis buffer (10 mM tRis, 150 mM NaCl, 1.5%-2.5% Igepal and 0.1-1 U/uL RNAsin, pH 7.4) was directly added to either K562 or A673 cells in media and mixed by pipetting 3 times. The plates were then incubated at room temperature with shaking/rocking for 20-50 minutes to allow for lysis to take place. After this time, the cell lysate plate was transferred to ice to set up for the RT-qPCR reactions. The lysates could also be frozen at −80° C. for later use.
(§6) To set up 10 uL RT-QpcR reactions, cell lysates were transferred to 384-well qPCR plates containing the master mix according to the table below. The plates were sealed, gently vortexed, and spun down before the run. The volumes were adjusted accordingly in some instances where the reaction was carried in 20 µL. The table below summarizes the components of the RT-qPCR reactions:
(§7) The RT-qPCR reaction was performed using a QuantStudio (ThermoFisher) under the following fast cycling conditions. […]

MYB [2] = assay: Gene panel canonical junction qPCR assay, MYB CJ mRNA (Table 7); assay type: cell-based; settings: Homo sapiens, read-out: MYB CJ mRNA decrease IC50
Protocol: as §1
(§8) The data analysis was performed by first determining the ΔCt vs the housekeeper gene. This ΔCt was then normalized against the DMSO control (ΔΔCt) and converted to RQ (relative quantification) using the 2^(−ΔΔCt) equation. The RQ were then converted to a percentage response by arbitrarily setting an assay window of 3.5 and 4.0 ΔCt for HTT-CJ and MYB-CJ respectively and an assay window of 9 and 3 ΔCt for HTT-AJ and MYB-AJ in 96 well format (50,000 K562 cells/well and 15,000 A673 cells per well) and an assay window of 3 and 4 ΔCt for HTT-CJ and MYB-CJ respectively and an assay window of 5 and 3 ΔCt for HTT-AJ and MYB-AJ respectively in 384 well format (8,000 K562 cells/well example). […] The percentage response was then fitted to the 4 parametric logistic equation to evaluate the concentration dependence of compound treatment. The increase in AJ mRNA is reported as AC50 (compound concentration having 50% response in AJ increase) while the decrease in CJ mRNA levels is reported as IC50 (compound concentration having 50% response in CJ decrease).
(§9) Additional studies were carried out for a larger panel of genes using the protocol provided above. The junction between flanking upstream and downstream exons was used to design canonical junction qPCR assays. At least one of the forward primer, reverse primer or the CY5-labeled 5′ nuclease probe (with 3′ quencher such as ZEN/Iowa Black FQ) was designed to overlap with the exon junction to capture the CJ mRNA transcript. BLAST was used to confirm the specificity of the probeset and parameters such as melting temperature, GC content, amplicon size, and primer dimer formation are considered during their design. Data for the decrease in CJ mRNA levels for four exemplary genes (HTT, SMN2, MYB, and Target C) analyzed in this panel are reported as IC50 (compound concentration having 50% response in CJ decrease).

MYB [3] = assay: RT-qPCR splicing assay, MYB AJ/CJ mRNA; assay type: cell-based; settings: Homo sapiens, A673 or K562 cells, 24 hours; for IC50: decrease in canonical junction mRNA; for AC50: increase in alternative junction mRNA
Protocol: as §1, §2, §3, §4, §5, §6, §7

Target C = assay: Gene panel canonical junction qPCR assay, Target C CJ mRNA (Table 7); assay type: cell-based, human; settings: Homo sapiens, read-out: Target C CJ mRNA decrease IC50
Protocol: as §1, §8, §9

SMN2 = assay: Gene panel canonical junction qPCR assay, SMN2 CJ mRNA (Table 7); assay type: cell-based; settings: Homo sapiens, read-out: SMN2 CJ mRNA decrease IC50
Protocol: as §1, §8, §9

HTT [4] = assay: Gene panel canonical junction qPCR assay, HTT CJ mRNA (Table 7); assay type: cell-based, human; settings: read-out: HTT CJ mRNA decrease IC50
Protocol: as §1, §8, §9

| SMILES | IC50 (HTT [1]; Homo sapiens, 24 h) | AC50 (HTT [1]; Homo sapiens, 24 h) | IC50 (MYB [2]) | IC50 (MYB [3]) | AC50 (MYB [3]) | IC50 (Target C) | IC50 (SMN2) | IC50 (HTT [4]; Homo sapiens) | IC50 (HTT [1]; 24 hours) | AC50 (HTT [1]; 24 hours) | IC50 (HTT [4]) |
| --- | --- | --- | --- | --- | --- | --- | --- | --- | --- | --- | --- |
| COc1cc(-c2ccc3c(c2)COc2nc(N4CCN[C@@H](C(C)(C)C)C4)ccc2-3)cnn1 [Compound 318, 5-{3-[(3S)-3-tert-butylpiperazin-1-yl]-6H-isochromeno[3,4-b]pyridin-8-yl}-3-methoxypyridazine] | < 100 nM | 100 to 1000 nM | 100 to 1000 nM | 100 to 1000 nM | 0.1 to 1 µM | 0.1 to 1 µM | < 100 nM | < 100 nM | – | – | – |
| CN(c1ccc2c(c1)CCOc1cc(-c3cn[nH]c3)ccc1-2)[C@@H]1C[C@H]2CC[C@@H](C1)N2 [Compound 112] | – | – | – | – | – | > 10 µM | – | – | – | – | – |
| c1cnn(-c2ccc3c(c2)COc2nc(N4CCCC5(CCNC5)C4)ccc2-3)c1 (centres unmarked) [Compound 192] | > 10000 nM | > 10000 nM | > 10000 nM | > 10000 nM | > 10 µM | > 10 µM | > 10000 nM | > 10000 nM | – | – | – |
| CC(C)(C)NC1CCN(c2ccc3c(n2)OCc2cc(-n4cccn4)ccc2-3)C1 (centres unmarked) [Compound 213] | 100 to 1000 nM | – | – | 1000 to 10000 nM | – | – | – | – | – | – | – |
| CCN(c1ccc2c(n1)OCc1cc(-n3cccn3)ccc1-2)[C@@H]1C[C@H]2CCC[C@@H](C1)N2 [Compound 195] | – | – | 1000 to 10000 nM | 1000 to 10000 nM | > 10 µM | 1 to 10 µM | 100 to 1000 nM | 100 to 1000 nM | – | – | – |
| CN(c1ccc2c(n1)OCc1cc(-n3cccn3)ccc1-2)[C@H]1[C@@H]2CNC[C@@H]21 [Compound 194] | 1000 to 10000 nM | 1000 to 10000 nM | – | – | – | > 10 µM | > 10000 nM | > 10000 nM | – | – | – |
| CN(c1cnc2c(n1)OCc1cc(-c3cn[nH]c3)ccc1-2)C1CC(C)(C)NC(C)(C)C1 [Compound 138] | – | – | – | – | – | 1 to 10 µM | – | – | 1000 to 10000 nM | 1000 to 10000 nM | 1000 to 10000 nM |
| CN(c1ccc2c(n1)CCOc1cc(-c3cn[nH]c3)ccc1-2)C1CC(C)(C)NC(C)(C)C1 [Compound 114] | 100 to 1000 nM | < 100 nM | – | – | – | < 0.1 µM | – | 100 to 1000 nM | – | – | – |
| c1cc2c(cc1-c1cn[nH]c1)COc1nc(N3CCC34CCCNC4)ccc1-2 (centres unmarked) [Compound 210] | > 10000 nM | – | – | > 10000 nM | – | – | – | – | – | – | – |
| CN(c1ccc2c(n1)COc1cc(-n3cccn3)ccc1-2)[C@@H]1C[C@H]2CC[C@@H](C1)N2 [Compound 109] | – | – | – | – | – | – | – | – | 100 to 1000 nM | 100 to 1000 nM | – |
| c1cc2c(cc1-c1cn[nH]c1)OCCc1nc(N[C@@H]3C[C@H]4CC[C@@H](C3)N4)ccc1-2 [Compound 140] | > 10000 nM | > 10000 nM | > 10000 nM | > 10000 nM | > 10 µM | – | > 10000 nM | > 10000 nM | – | – | – |
| Cc1cc(-c2ccc3c(c2)COc2nc(O[C@@H]4C[C@H]5C[C@@H](C4)N5)ccc2-3)ccn1 [Compound 209] | – | – | 100 to 1000 nM | 100 to 1000 nM | 1 to 10 µM | 1 to 10 µM | 100 to 1000 nM | 100 to 1000 nM | – | – | – |
| CN(c1ccc2c(n1)CCOc1cc(-n3cccn3)ccc1-2)[C@@H]1C[C@H]2CC[C@@H](C1)N2 [Compound 128] | > 10000 nM | > 10000 nM | – | – | – | > 10 µM | – | > 10000 nM | – | – | – |
| c1cnn(-c2ccc3c(c2)COc2nc(N(C4CC4)[C@@H]4C[C@H]5CC[C@@H](C4)N5)ccc2-3)c1 [Compound 205] | 1000 to 10000 nM | 100 to 1000 nM | – | – | – | – | – | – | – | – | – |
| CN(c1ccc2c(n1)CCOc1cc(-c3cn[nH]c3)ccc1-2)[C@@H]1C[C@H]2CC[C@@H](C1)N2 [Compound 127] | > 10000 nM | > 10000 nM | > 10000 nM | > 10000 nM | > 10 µM | – | > 10000 nM | > 10000 nM | – | – | – |
| c1cnn(-c2ccc3c(c2)COc2nc(N4CCC(NC5CC5)C4)ccc2-3)c1 (centres unmarked) [Compound 214] | > 10000 nM | – | – | > 10000 nM | – | – | – | – | – | – | – |
| c1cc2c(cc1-c1cn[nH]c1)COc1nc(N3CCC(NC4CC4)C3)ccc1-2 (centres unmarked) [Compound 211] | < 100 nM | – | – | 100 to 1000 nM | – | – | – | – | – | – | – |
| CC(C)(C)NC1CCN(c2ccc3c(n2)OCc2cc(-c4cn[nH]c4)ccc2-3)C1 (centres unmarked) [Compound 212] | < 100 nM | – | – | 100 to 1000 nM | – | – | – | – | – | – | – |
| c1cc2c(cc1N[C@@H]1C[C@H]3CC[C@@H](C1)N3)CCOc1cc(-c3cn[nH]c3)ccc1-2 [Compound 132] | > 10000 nM | > 10000 nM | – | – | – | > 10 µM | – | > 10000 nM | – | – | – |
| c1cnn(-c2ccc3c(c2)COc2nc(N(C4CC4)[C@@H]4C[C@H]5CCC[C@@H](C4)N5)ccc2-3)c1 [Compound 203] | 1000 to 10000 nM | 1000 to 10000 nM | – | – | – | – | – | – | – | – | – |
